This is an account of results in US20170081347A1, “FUNCTIONALIZED AZABORINE COMPOUNDS AND AZABORINE-CONTAINING BIARYLCARBOXAMIDES, AND COMPOSITIONS AND METHODS THEREOF” (The Trustees of Boston College, priority 2014, published 2017).

Values after ≈ are worked out from the molar mass of the structure shown. Read-outs that look alike come from different tables or passages of the source.

The nature of one data set: Solubility pH = 6.8. In kind it is physicochemical. The settings on record: aqueous buffer.
The target in a further data set is T1, PPARγ (Homo sapiens, UniProt P37231).
T1 sequence (P37231 1-505): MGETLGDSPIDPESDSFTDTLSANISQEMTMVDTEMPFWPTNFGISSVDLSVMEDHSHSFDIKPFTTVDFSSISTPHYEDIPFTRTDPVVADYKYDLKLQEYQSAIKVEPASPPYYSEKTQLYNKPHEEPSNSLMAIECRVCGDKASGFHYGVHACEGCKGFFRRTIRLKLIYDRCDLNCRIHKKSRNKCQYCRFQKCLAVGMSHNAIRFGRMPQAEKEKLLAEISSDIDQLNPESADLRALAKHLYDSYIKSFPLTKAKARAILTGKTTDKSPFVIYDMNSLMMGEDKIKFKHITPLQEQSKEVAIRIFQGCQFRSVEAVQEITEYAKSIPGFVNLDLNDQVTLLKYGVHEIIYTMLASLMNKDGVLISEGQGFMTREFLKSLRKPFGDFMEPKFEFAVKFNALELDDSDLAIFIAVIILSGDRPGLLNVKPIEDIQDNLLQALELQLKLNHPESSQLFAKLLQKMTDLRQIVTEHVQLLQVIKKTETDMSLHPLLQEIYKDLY
Put plainly: PPARγ antagonist. The class given is biochemical.

Another data set has as its target hERG (Homo sapiens, UniProt Q12809). Put plainly: hERG.
The nature of a further data set: RLM Cl. In kind it is in vitro ADME.
In another data set the target is CYP3A4 (Homo sapiens, UniProt P08684). Put plainly: CYP3A4 (Cytochrome P450 3A4). In kind it is in vitro ADME.
The nature of data set [1]: Solubility FASSIF (fasted state simulated intestinal fluid). The class given is physicochemical.
The target in another data set is T2, PPARδ (Homo sapiens, UniProt Q03181).
T2 sequence (Q03181 1-441): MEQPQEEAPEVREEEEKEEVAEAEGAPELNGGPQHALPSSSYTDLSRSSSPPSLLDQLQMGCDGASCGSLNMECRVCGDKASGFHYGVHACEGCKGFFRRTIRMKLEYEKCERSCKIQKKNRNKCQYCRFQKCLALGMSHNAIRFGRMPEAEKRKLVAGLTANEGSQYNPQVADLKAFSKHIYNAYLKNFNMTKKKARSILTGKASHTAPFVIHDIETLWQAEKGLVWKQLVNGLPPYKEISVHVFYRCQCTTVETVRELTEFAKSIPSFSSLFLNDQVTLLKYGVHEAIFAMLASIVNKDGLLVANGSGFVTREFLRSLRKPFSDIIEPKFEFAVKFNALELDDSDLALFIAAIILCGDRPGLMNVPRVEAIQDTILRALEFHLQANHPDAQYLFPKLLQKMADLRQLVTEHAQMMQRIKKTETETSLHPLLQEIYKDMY
Nature of the data set: PPARδ antagonist. In kind it is biochemical.

The next data set deals with T3, PPARα (Homo sapiens, UniProt Q07869).
T3 sequence (Q07869 1-468): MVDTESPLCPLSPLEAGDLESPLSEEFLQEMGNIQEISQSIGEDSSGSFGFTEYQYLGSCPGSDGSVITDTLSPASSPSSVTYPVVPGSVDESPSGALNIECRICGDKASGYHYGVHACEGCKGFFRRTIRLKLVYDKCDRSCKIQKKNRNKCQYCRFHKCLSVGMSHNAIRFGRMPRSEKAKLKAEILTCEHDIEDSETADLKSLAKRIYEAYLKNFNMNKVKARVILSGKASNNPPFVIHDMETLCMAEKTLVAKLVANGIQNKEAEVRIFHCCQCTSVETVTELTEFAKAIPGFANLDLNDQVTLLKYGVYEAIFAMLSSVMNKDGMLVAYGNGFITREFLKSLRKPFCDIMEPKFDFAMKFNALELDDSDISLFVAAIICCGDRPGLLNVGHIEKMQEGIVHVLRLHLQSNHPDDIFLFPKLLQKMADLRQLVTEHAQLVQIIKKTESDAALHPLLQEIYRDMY
Nature of the data set: PPARα inverse agonist. The class given is biochemical.

Another data set is described as follows: LogD. In kind it is physicochemical.
Data set [2] in a line: PAMPA (parellel artificial membrane permeability assay). In kind it is in vitro ADME. Set-up: unit not given here.
The target in another data set is Dopamine D3 (Homo sapiens, UniProt P35462). Put plainly: Dopamine D3 antagonist. The class given is biochemical. As for the experimental part: (§1) Bioactivity and ADME testing were performed for certain compounds of the invention.
Another data set concerns the target Dopamine D2 (Homo sapiens, UniProt P14416). Nature of the data set: Dopamine D2 antagonist. In kind it is biochemical.
In the next data set the target is Opioid μ (Homo sapiens, UniProt P35372). Put plainly: Opioid μ antagonist. In kind it is biochemical. The method, then: as §1
A further data set has as its target Opioid δ (Homo sapiens, UniProt P41143). Put plainly: Opioid δ antagonist. The class given is biochemical. As for the experimental part:
as §1

For another data set, the target named is CDK2 (Homo sapiens, UniProt P24941). Put plainly: CDK2 inhibitor. The class given is biochemical.

hERG, sequence (Q12809 whole entry): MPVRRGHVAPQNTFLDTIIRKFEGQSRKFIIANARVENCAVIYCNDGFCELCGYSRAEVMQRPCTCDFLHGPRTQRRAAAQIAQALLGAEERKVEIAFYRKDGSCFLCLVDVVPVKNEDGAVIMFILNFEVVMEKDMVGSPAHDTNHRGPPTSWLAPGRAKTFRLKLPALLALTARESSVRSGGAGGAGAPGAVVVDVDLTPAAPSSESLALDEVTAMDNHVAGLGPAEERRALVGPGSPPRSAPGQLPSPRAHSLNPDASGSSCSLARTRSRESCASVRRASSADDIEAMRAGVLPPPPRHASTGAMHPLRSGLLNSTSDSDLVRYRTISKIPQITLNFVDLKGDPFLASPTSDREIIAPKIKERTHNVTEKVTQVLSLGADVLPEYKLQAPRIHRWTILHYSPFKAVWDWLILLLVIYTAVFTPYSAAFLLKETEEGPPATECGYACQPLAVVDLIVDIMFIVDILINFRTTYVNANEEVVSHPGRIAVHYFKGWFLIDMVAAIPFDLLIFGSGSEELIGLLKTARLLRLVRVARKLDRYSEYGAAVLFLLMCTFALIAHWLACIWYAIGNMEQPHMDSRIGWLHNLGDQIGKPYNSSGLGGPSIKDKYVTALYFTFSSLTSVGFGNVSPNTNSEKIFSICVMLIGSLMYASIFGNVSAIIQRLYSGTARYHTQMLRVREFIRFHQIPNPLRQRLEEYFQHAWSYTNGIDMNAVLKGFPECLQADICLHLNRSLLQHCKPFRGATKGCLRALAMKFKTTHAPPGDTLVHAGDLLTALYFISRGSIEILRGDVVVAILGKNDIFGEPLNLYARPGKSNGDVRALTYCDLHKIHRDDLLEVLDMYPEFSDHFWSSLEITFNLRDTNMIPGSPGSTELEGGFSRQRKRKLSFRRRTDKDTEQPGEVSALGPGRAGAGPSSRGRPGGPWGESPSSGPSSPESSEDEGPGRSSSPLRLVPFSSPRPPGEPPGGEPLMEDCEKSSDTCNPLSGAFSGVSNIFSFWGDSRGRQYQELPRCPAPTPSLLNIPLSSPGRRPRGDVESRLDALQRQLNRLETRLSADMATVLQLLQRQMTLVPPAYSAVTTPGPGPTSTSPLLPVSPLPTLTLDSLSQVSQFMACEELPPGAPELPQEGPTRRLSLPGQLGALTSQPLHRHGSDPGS
CYP3A4, sequence (P08684 whole entry): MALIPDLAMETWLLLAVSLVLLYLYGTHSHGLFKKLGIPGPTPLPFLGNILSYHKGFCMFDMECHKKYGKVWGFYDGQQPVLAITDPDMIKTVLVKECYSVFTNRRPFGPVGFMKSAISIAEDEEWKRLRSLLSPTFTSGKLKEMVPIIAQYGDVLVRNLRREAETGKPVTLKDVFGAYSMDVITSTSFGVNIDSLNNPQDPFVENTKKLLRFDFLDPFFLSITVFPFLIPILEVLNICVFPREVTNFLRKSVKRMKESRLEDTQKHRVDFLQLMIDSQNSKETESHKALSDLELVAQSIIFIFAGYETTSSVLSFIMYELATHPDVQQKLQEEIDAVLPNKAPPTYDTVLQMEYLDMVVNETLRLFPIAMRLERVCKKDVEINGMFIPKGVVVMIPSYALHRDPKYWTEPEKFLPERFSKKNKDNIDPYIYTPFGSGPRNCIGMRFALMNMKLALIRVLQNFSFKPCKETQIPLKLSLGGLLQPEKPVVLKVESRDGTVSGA
Dopamine D3, sequence (P35462 whole entry): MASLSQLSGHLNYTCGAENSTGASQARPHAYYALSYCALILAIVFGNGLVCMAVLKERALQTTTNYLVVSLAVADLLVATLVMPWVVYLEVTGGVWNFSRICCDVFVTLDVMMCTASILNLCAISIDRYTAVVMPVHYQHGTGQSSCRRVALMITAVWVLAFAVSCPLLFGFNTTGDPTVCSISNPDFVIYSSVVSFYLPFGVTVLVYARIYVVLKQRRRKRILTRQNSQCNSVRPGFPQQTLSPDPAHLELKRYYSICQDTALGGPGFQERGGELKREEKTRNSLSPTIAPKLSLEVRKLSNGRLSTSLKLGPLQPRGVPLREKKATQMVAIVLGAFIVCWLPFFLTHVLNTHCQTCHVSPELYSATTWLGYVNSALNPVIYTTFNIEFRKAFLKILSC
Opioid δ, sequence (P41143 whole entry): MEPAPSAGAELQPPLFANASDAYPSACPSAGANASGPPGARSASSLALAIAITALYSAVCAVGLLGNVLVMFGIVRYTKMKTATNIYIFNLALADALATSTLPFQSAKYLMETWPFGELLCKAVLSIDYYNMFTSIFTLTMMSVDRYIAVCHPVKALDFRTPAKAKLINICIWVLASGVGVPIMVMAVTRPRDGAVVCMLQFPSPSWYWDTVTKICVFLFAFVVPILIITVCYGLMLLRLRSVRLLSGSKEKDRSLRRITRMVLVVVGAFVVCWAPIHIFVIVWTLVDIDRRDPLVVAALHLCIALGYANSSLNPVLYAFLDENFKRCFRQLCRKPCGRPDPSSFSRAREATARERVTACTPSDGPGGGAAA
Opioid μ, sequence (P35372 whole entry): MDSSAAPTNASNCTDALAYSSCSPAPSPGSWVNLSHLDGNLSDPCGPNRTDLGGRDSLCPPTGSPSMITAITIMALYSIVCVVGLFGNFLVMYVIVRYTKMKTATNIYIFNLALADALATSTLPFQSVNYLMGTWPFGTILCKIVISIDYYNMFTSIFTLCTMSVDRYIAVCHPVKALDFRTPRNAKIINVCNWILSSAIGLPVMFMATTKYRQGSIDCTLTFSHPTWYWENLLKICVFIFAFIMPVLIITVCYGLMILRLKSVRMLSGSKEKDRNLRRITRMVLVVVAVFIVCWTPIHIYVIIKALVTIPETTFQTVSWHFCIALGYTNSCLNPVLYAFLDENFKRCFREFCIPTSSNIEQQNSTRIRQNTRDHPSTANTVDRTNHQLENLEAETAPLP
Dopamine D2, sequence (P14416 whole entry): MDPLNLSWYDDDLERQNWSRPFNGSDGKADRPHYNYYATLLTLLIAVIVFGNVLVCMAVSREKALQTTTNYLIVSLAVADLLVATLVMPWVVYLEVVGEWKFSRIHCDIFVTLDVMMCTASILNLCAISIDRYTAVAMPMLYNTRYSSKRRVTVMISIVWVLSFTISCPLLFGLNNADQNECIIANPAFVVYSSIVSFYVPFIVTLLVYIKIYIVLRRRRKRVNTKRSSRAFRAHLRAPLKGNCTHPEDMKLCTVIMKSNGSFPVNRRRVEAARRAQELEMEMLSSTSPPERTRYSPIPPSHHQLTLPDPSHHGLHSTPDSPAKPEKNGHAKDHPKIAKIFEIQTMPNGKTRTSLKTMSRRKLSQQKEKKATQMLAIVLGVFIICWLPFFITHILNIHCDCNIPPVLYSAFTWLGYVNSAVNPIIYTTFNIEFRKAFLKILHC

Take `O=C(NCCS(=O)(=O)c1ccc(C(F)(F)F)cn1)c1ccc(B2C=CCCN2)cc1`: the solubility was less than 4 µM in “Solubility pH = 6.8” and 6 µM (≈ 2.62 µg/mL) in [1]. The IC50 against PPARγ is 4.8 µM; at hERG it was more than 30 µM; at CYP3A4 it was more than 20 µM; on PPARδ (antagonist, read-out: PPARδ antagonist IC50), 1400 nM; at PPARα, 52 nM. Further, the “RLM Cl” value in the data set “RLM Cl” is more than 53 mL/min/kg. The same compound registered a logD in the data set “LogD” of 3.5. This compound also showed a PAMPA in [2] of −4.5.

As for `COc1ccc2[nH]cc(CCNC(=O)c3ccc(B4C=CC=CN4)cc3)c2c1`, the half-maximal inhibitory concentration (IC50) against hERG was determined as 7.9 µM; against CYP3A4 it was 17 µM. In the data set “RLM Cl”, the “RLM Cl” value turned out to be 51.3 mL/min/kg. In addition, in “LogD”, the log distribution coefficient (logD) came to 5. The PAMPA in data set [2] was −4.2.

For `COc1ccccc1N1CCN(CCCCNC(=O)c2ccc(B3C=CC=CN3)cc2)CC1`, the solubility in the data set “Solubility pH = 6.8” is 46 µM (≈ 20.4 µg/mL); in [1], 220 µM (≈ 97.8 µg/mL). Moreover, the IC50 stood at 4 nM against Dopamine D3, 0.17 µM against hERG, 11 µM at CYP3A4 and 520 nM at Dopamine D2. In “RLM Cl”, the “RLM Cl” value was more than 53 mL/min/kg. Moreover, in “LogD”, the logD amounted to 4.1. The PAMPA in data set [2] is listed as −4.3.

In the case of `O=C(O)Cc1ccc(-c2ccccc2)cc1`, the figures for the solubility (in “Solubility pH = 6.8”; in data set [1]) were 890 µM (≈ 189 µg/mL) and 840 µM (≈ 178 µg/mL), respectively.

In the case of `Cl.O=C(Cc1ccc(-c2ccccc2)cc1)Nc1cc(C2CC2)n[nH]1`, the solubility was less than 4 µM in the data set “Solubility pH = 6.8” and 13 µM in [1]. Moreover, the IC50 on hERG is more than 30 µM; against CYP3A4, more than 20 µM. Further, the “RLM Cl” value in “RLM Cl” stood at 50 mL/min/kg. This compound also registered a log distribution coefficient (logD) in the data set “LogD” of 4.2. Also, the PAMPA in data set [2] was −3.9.

In the case of `CC(C)[C@@H](CN1CCN(c2cccc(O)c2)[C@@H](C)C1)NC(=O)c1ccc(-c2ccccc2)cc1`, the solubility is 50 µM (≈ 22.9 µg/mL) in “Solubility pH = 6.8” and 349 µM (≈ 160 µg/mL) in data set [1]. Further, the IC50 against hERG is more than 30 µM; on CYP3A4, more than 20 µM; against Opioid μ, 7.4 µM; on Opioid δ, more than 30 µM. Besides, the “RLM Cl” value in the data set “RLM Cl” was more than 53 mL/min/kg. In “LogD”, this compound showed a log distribution coefficient (logD) of 5.2. Also, the PAMPA in data set [2] is on record as −5.7.

In the case of `O=C(NCc1ccncc1)c1ccc(B2C=CC=CN2)cc1`, the solubility is 88 µM (≈ 25.4 µg/mL) in the data set “Solubility pH = 6.8” and 130 µM (≈ 37.6 µg/mL) in data set [1]. For the same compound, the half-maximal inhibitory concentration (IC50) at hERG is more than 30 µM; on CYP3A4, 8.6 µM. In “RLM Cl”, the “RLM Cl” value came to 39.6 mL/min/kg. In “LogD”, this compound registered a log distribution coefficient (logD) of 3.2. In [2], this compound registered a PAMPA of −4.6.

Consider `CC(C)[C@@H](CN1CCN(c2cccc(O)c2)[C@@H](C)C1)NC(=O)c1ccc(B2C=CCCN2)cc1`, for which the solubility in the data set “Solubility pH = 6.8” was 26 µM (≈ 12 µg/mL); in data set [1], 119 µM (≈ 54.8 µg/mL). For the same compound, the 50% inhibitory concentration (IC50) at hERG was 9.1 µM; at CYP3A4 it was 16 µM; at Opioid μ, 1 µM; against Opioid δ it was more than 14 µM. Also, the “RLM Cl” value in “RLM Cl” is more than 53 mL/min/kg. Also, the logD in the data set “LogD” was 4.9. This compound returned a PAMPA in data set [2] of −5.0.

As to `O=C(O)Cc1ccc(B2C=CC=CN2)cc1`, the solubility in the data set “Solubility pH = 6.8” was more than 1000 µM; in [1], 790 µM (≈ 168 µg/mL). Besides, the results for the IC50 against hERG and at CYP3A4 were more than 30 µM and more than 20 µM, respectively.

For `COc1ccc2[nH]cc(CCNC(=O)c3ccc(-c4ccccc4)cc3)c2c1`, the results for the IC50 on hERG and at CYP3A4 were 11 µM and more than 20 µM, respectively. Moreover, the “RLM Cl” value in the data set “RLM Cl” came out at 46.4 mL/min/kg. In “LogD”, the logD was more than 5. The compound also gave a PAMPA in data set [2] of −4.1.

Regarding `CN(CCc1c[nH]c2ccccc12)C(=O)c1ccc(-c2ccccc2)cc1`, the solubility (in the data set “Solubility pH = 6.8”; in data set [1]) was less than 5 µM throughout. Also, the figures for the IC50 at hERG and against CYP3A4 were more than 30 µM and more than 20 µM, respectively. Also, the “RLM Cl” value in “RLM Cl” amounted to 48.6 mL/min/kg. Besides, the pH-dependent lipophilicity (logD) in “LogD” was more than 5. In data set [2], this compound gave a PAMPA of −4.5.

For `COc1ccccc1N1CCN(CCCCNC(=O)c2ccc(-c3ccccc3)cc2)CC1`, the solubility was less than 5 µM in the data set “Solubility pH = 6.8” and 21 µM (≈ 9.32 µg/mL) in [1]. Also, the IC50 against Dopamine D3 is 3 nM; against hERG it was 0.042 µM; against CYP3A4, more than 20 µM. For the same compound, in “RLM Cl”, the “RLM Cl” value came to 51.4 mL/min/kg. The same compound gave a logD in the data set “LogD” of 4.2. Also, in data set [2], the PAMPA is −3.9.

As for `CN(CCc1c[nH]c2ccccc12)C(=O)c1ccc(B2C=CC=CN2)cc1`, the solubility in “Solubility pH = 6.8” is less than 5 µM; in data set [1], 13 µM (≈ 4.62 µg/mL). In addition, the half-inhibitory concentration (IC50) was 5.8 µM on hERG and more than 20 µM against CYP3A4. Also, the “RLM Cl” value in “RLM Cl” is 52.4 mL/min/kg. This compound returned a logD in the data set “LogD” of 4.6. Besides, the PAMPA in data set [2] is on record as −4.2.

On to `O=C(NC1CCN(Cc2ccccc2)C1)c1ccc(B2C=CC=CN2)cc1` (stereo not shown), for which the values for the solubility (in the data set “Solubility pH = 6.8”; in data set [1]) were more than 30 µM and 597 µM (≈ 213 µg/mL), respectively. In addition, the values for the IC50 against hERG and at CYP3A4 were 1.4 µM and more than 20 µM, respectively. The “RLM Cl” value in the data set “RLM Cl” turned out to be 48.5 mL/min/kg. Moreover, in “LogD”, the log distribution coefficient (logD) turned out to be 4.1. In addition, the PAMPA in [2] is reported as −4.8.

Turning to `O=C(NC1CCN(Cc2ccccc2)C1)c1ccc(-c2ccccc2)cc1` (stereo not shown), the solubility in “Solubility pH = 6.8” was 13 µM (≈ 4.63 µg/mL); in data set [1], 27 µM (≈ 9.62 µg/mL). Also, the half-maximal inhibitory concentration (IC50) against hERG was 0.32 µM; on CYP3A4, more than 20 µM. In addition, the “RLM Cl” value in the data set “RLM Cl” was found to be 43.7 mL/min/kg. In addition, the log distribution coefficient (logD) in the data set “LogD” is 4.4. Besides, the PAMPA in data set [2] was −3.6.

With `O=C(NCCS(=O)(=O)c1ccc(C(F)(F)F)cn1)c1ccc(-c2ccccc2)cc1`, the solubility (in “Solubility pH = 6.8”; in data set [1]) was less than 4 µM throughout. In addition, the concentration for half-maximal inhibition (IC50) on PPARγ was 1.4 µM; on hERG, more than 20 µM; on CYP3A4, more than 20 µM; against PPARδ, 3900 nM. Also, the “RLM Cl” value in “RLM Cl” stood at 38.7 mL/min/kg. Moreover, in “LogD”, the logD worked out at 3.5. In addition, the PAMPA in [2] is recorded as −4.2.

As to `O=C(Cc1ccc(B2C=CC=CN2)cc1)Nc1cc(C2CC2)[nH]n1`, the IC50 at CDK2 was 240 nM; on hERG, more than 30 µM; on CYP3A4, 7.8 µM.
